{"source": "patent US20040097534A1", "about": "“Composition for the protection and regeneration of nerve cells containing berberine derivatives” (EUGENBIO INC., priority 2001, published 2004)", "key": {"PC12 cells [1]": {"test_system": "PC12 cells", "assay": "MTT assay, PC12 survival under serum deprivation-induced stress", "type": "cell-based, rat", "settings": "for O.D.: 2 days; for Average (O.D. relative to RPMI): RPMI = 100%", "description": "(§1) Cell injuries under condition of serum deprivation-induced stress and oxidative stress were measured by MTT assay. For MTT assay, Cells were seeded into N2 medium in an amount of 7.5×10^3 cells, and then a neurotoxin or a nerve growth factor was added thereto to differentiate the cells and then 0.1 volume of 4 mg/ml MTT was further added. The mixture was stored at 37° C. for 3-4 hours. After 100 μl of solubilization buffer was added to the mixture and then stored for 24 hours, O.D. values were measured by ELISA assay.\nNGF, increasing cell survival and inducing cell differentiation, was used as a positive control. After the cells were treated with berberine (0.25˜3 μg/ml), the cells were cultured for 2 days to induce nerve regeneration (see, Table 3 and FIG. 5a)."}, "PC12 cells [2]": {"test_system": "PC12 cells", "assay": "MTT assay, PC12 survival under dexamethasone (glucocorticoid) stress", "type": "cell-based, rat", "description": "as §1\nGlucocorticoids are hormones secreted from the adrenal glands, and involve in a variety of metabolic processes including glycometabolism. In particular, stress causes release of glucocorticoids to reduce cell divisions of neuronal stem cells in the brain and induce apoptosis of nerve cells. Therefore, PC12 cells were treated with dexamethasone, a glucocorticoid derivative, to examine the effect of berberine against apoptosis of nerve cells. 3 hours after treatment with berberine, dexamethasone (1) was added to a culture solution and incubated for 2 days to induce neuroregeneration (see, Table 5 and FIG. 5b)."}, "HiB5 cells": {"test_system": "HiB5 cells", "assay": "Induction of differentiation of HiB5 cells into nerve cells (neurite count, confocal)", "type": "cell-based, white rat", "settings": "HiB5, berberine, 2 days", "description": "Thereafter, the culture was treated with berberine and further cultured for 2 days. The cultured cells were immunostained with nerve cell-specific labeled molecule, and then the number of cells having neurites longer than cell bodies was counted under a confocal microscope. A positive control was treated with bFGF under the same condition as described above to induce the differentiation into nerve cells. In addition, the neuroregenerative effect was examined after berberine together with bFGF was treated. The differentiation degree was measured by double-staining neurites with nerve cell-specific labeled molecule (anti-neurofilament antibody) and FITC-labeled secondary antibody (green), followed by staining cell nuclei with propidium iodide (red)."}, "[3]": {"test_system": "neuromuscular junctions of hindlimb muscles", "assay": "Regeneration of nerve endings at neuromuscular junctions after sciatic nerve crush", "type": "in vivo, white rat", "settings": "4 weeks after operation, hindlimb muscle", "text": "In order to see whether berberine influences the regeneration of nerve endings in the neuromuscular junctions, 4 weeks after operation, hindlimb muscles connected to sciatic nerves were separated and cryosected. The neuromuscular junctions were stained using beta-tubulin isotypeIII and neurofilament, which are nerve markers."}, "sciatic nerves": {"test_system": "sciatic nerves", "assay": "Regeneration of crushed sciatic nerves (axons, myelin sheaths)", "type": "in vivo, Sprague-Dawley white rat", "settings": "3 weeks, berberine intraperitoneal"}, "[4]": {"settings": "N2 + dexamethasone + berberine 0.25 μg/ml"}, "[5]": {"settings": "N2 + dexamethasone + berberine 1.5 μg/ml"}, "[6]": {"settings": "N2 + dexamethasone + berberine 3 μg/ml"}}, "note": "Entries after “also recorded” stand apart in the source; their conditions may differ."}
{"smiles": "COc1ccc2cc3[n+](cc2c1OC)CCc1cc2c(cc1-3)OCO2", "note": "[Berberine, 7,8,13,13a-tetradihydro-9,10-dimethoxy-2,3-(methylenedioxy) berbinium]", "values": [{"measurement": "O.D.", "setting": "PC12 cells [1]; RPMI + berberine 0.25 μg/ml", "value": 0.203}, {"measurement": "Average (O.D. relative to RPMI)", "setting": "PC12 cells [1]; RPMI + berberine 0.25 μg/ml", "value": 121, "unit": "%"}, {"measurement": "O.D.", "setting": "PC12 cells [1]; RPMI + berberine 1.5 μg/ml", "value": 0.239}, {"measurement": "Average (O.D. relative to RPMI)", "setting": "PC12 cells [1]; RPMI + berberine 1.5 μg/ml", "value": 142, "unit": "%"}, {"measurement": "O.D.", "setting": "PC12 cells [1]; RPMI + berberine 3 μg/ml", "value": 0.262}, {"measurement": "Average (O.D. relative to RPMI)", "setting": "PC12 cells [1]; RPMI + berberine 3 μg/ml", "value": 156, "unit": "%"}, {"measurement": "cell survival rate versus control group", "setting": "PC12 cells [1]; serum deprivation, berberine (1.5˜3 μg/ml elsewhere in the source)", "value": 1.5, "unit": "times"}, {"measurement": "Average (O.D. relative to dexamethasone alone)", "setting": "PC12 cells [2]; [4]", "value": 111, "unit": "%"}, {"measurement": "O.D.", "setting": "PC12 cells [2]; [4]", "value": 0.214}, {"measurement": "Average (O.D. relative to dexamethasone alone)", "setting": "PC12 cells [2]; [5]", "value": 127, "unit": "%"}, {"measurement": "O.D.", "setting": "PC12 cells [2]; [5]", "value": 0.245}, {"measurement": "Average (O.D. relative to dexamethasone alone)", "setting": "PC12 cells [2]; [6]", "value": 132, "unit": "%"}, {"measurement": "O.D.", "setting": "PC12 cells [2]; [6]", "value": 0.253}, {"measurement": "cell survival rate increase", "setting": "PC12 cells [2]; dexamethasone stress, 2 days", "value": "about 1.3 times"}, {"measurement": "number of cells differentiated into nerve cells, increase", "setting": "HiB5 cells", "value": "increased two times"}, {"measurement": "Number of differentiated cells", "setting": "HiB5 cells; N2 = 3.07", "value": 7.87}, {"measurement": "Average (%) of differentiated cells", "setting": "HiB5 cells; N2 = 14.46", "value": 31.57, "unit": "%"}, {"measurement": "total average cell numbers", "setting": "HiB5 cells; N2 = 22.38", "value": 26.61}, {"measurement": "regeneration of nerve endings / formation of neuromuscular junctions", "setting": "[3]", "value": "spread to all muscle fibers; also recorded: reached all muscle fibers to form neuromuscular junctions"}, {"measurement": "number of axons longer than 300 μm", "setting": "sciatic nerves; PBS = 21.3", "value": 51.6}, {"measurement": "number of myelin sheaths longer than 200 μm", "setting": "sciatic nerves; PBS = 40", "value": 112}]}
